{
  "source": "ChEMBL document CHEMBL4000165",
  "about": "“Chemosensitizing effect of Paris Saponin I on Camptothecin and 10-hydroxycamptothecin in lung cancer cells via p38 MAPK, ERK, and Akt signaling pathways” (Eur J Med Chem, 2017)",
  "tested_on": "NCI-H446",
  "assay": "Effect on Akt protein expression in human NCI-H446 cells at 0.6 uM in presence of CPT by Western blot method",
  "type": "functional, cell-based",
  "note": "Active and inactive are the calls of the source. The rule behind the calls is not given here.",
  "data": [
    {"smiles": "C[C@@H]1CC[C@@]2(OC1)O[C@H]1C[C@H]3[C@@H]4CC=C5C[C@@H](O[C@@H]6O[C@H](CO)[C@@H](O[C@@H]7O[C@@H](CO)[C@H](O)[C@H]7O)[C@H](O)[C@H]6O[C@@H]6O[C@@H](C)[C@H](O)[C@@H](O)[C@H]6O)CC[C@]5(C)[C@H]4CC[C@]3(C)[C@H]1[C@@H]2C", "values": [
      {"measurement": "Activity", "value": "inactive"}
    ]}
  ]
}
